Data: patent US20260306641A1, “HELICASE DEGRADERS” (priority 2023, published 2026)

Key:
[1] = test system: T1, human CMG helicase (hCMG); experiment: hCMG helicase fork-unwinding (strand displacement) assay; assay type: biochemical; conditions: for inhibition of hCMG helicase activity, SAR set: 500 μM compound
T1 construct: made in house; host or cells: High Five insect cells, baculovirus (11 viruses co-infected)
Method: The human CMG helicase was purified following the established and validated protocol of Hurwitz and colleagues(19,20), with minor modifications. A detailed description of the approach is shown here, to allow for comparisons to the methods described by the Hurwitz group.
High Five insect cells (2-3 million cells/ml, 1.5 L), were in cultured in a shaking incubator at 27° C. in suspension with ESF921 serum free medium (Expression Systems, CA; cat. #96-001-01), then co-infected for 60 hrs with 11 baculoviruses expressing human 6His2Flag-Cdc45, the human MCM hexamer (Mcm2, Mcm3, Mcm4, Mem5, Mcm6, Mcm7), and human GINS (GST-Sld5, Psf3, Psf2, and Psf1). Each virus was infected at an MOI of ~10 from individual virus stocks. Infected cells were harvested by centrifugation at 650×g for 5 min at 4° C., washed with cold PBS, frozen on dry ice, and stored at −80° C. until use. The cell pellet (~20 mL) was thawed on ice, resuspended in 45 ml Hypotonic Buffer [20 mM Hepes-NaOH (pH 7.5), 5 mM KCl, 1.5 mM MgCl2] with protease inhibitors (1 mM [COMPOUND LEFT OUT], 1 mM Benzamidine, 0.15 μM Aprotinin, 4 μM Leupeptin, and 1 μM Antipain), and kept on ice for 10 min before lysing by Dounce homogenization (tight fitting, 60 strokes). The cell extract was adjusted to 0.42 M potassium acetate and centrifuged at 43,000×g for 1 hr at 4° C. The cleared lysate was mixed with 0.75 ml glutathione beads (cat. #17-0756-05; GE Healthcare) pre-equilibrated with FEQ buffer [20 mM Hepes-NaOH (pH 7.5), 0.42 M potassium acetate, 5 mM KCl, 1.5 mM MgCl2] and incubated by rotation at 4° C. overnight. Following centrifugation at 290×g at 4° C., the bound glutathione beads were washed four times (15 min each wash) with 40 ml of FW buffer [20 mM Hepes-NaOH (pH 7.5), 0.42 M potassium acetate, 1 mM DTT, 1 mM EDTA, 0.01% NP40, 10% glycerol (vol/vol) with protease inhibitors as above] containing protease inhibitors (as above). Bound proteins were eluted at 4° C. three times (1 hr each elution) with 3.5 ml Q buffer [20 mM Hepes-NaOH (pH 7.5), 1 mM DTT, 1 mM EDTA, 0.01% NP40, 10% glycerol (vol/vol), and protease inhibitors as above] containing 0.15 M potassium acetate and 20 mM reduced glutathione. The eluted fractions were combined and applied to a HiTrap Q-Sepharose FF column (HiTrap Q FF 1 mL, cat. #17505301, Cytiva), pre-equilibrated 3× with 5 ml of Q buffer containing 0.15 M, 0.75 M, 0.15M potassium acetate, in sequence. The Q-Sepharose FF column was washed with 10 ml of FW buffer containing protease inhibitors (as above). The proteins were eluted with 10 ml of Q buffer containing 0.75 M potassium acetate. The eluted fraction was mixed with 0.15 ml of anti-Flag M2 affinity gel/beads and incubated while rotating at 4° C. overnight. After centrifugation at 290×g for 5 min at 4° C., the beads were washed three times with 10 ml PreScission buffer [50 mM Tris-HCl (pH 7.5), 0.15 M NaCl, 1 mM DTT, 1 mM EDTA] for 15 min at 4° C., and eluted at 4° C. three times (1 hr each elution) with 0.2 ml PreScission enzyme buffer containing 0.2 mg/ml 3×-Flag peptides. The combined eluates were incubated with 20 Units of PreScission Protease (GE Healthcare) and 0.1 mL glutathione beads for 4 hr at 4° C. The supernatant was layered onto a 15-40% glycerol gradient [25 mM Tris-HCl (pH 7.5), 50 mM NaCl, 1 mM DTT, 1 mM EDTA, 0.01% NP40, protease inhibitors as above] in a 5 mL ultra-centrifugation tube and centrifuged at 260,000×g for 14 hr at 4° C. Glycerol fractions (0.15 mL each fraction) were collected from bottom of tube and stored at −80° C. until use. Typically, fractions 6-9 contained complete hCMG (~750-800 kDa) and co-migrated with thyroglobulin.
Helicase fork-unwinding assays were performed at 37° C. for 1 hr in 20 μL reaction volumes using 2-4 μl of hCMG (~15-30 fmol), in a buffer consisting of 25 mM Hepes-NaOH (pH 7.5), 5 mM NaCl, 0.5 mM ATP, 10 mM magnesium acetate, 1 mM DTT, 0.1 mg/ml bovine serum albumin (BSA), and ~10 fmol of radiolabeled DNA forks (20). […]

[2] = test system: HaCaT cells; experiment: BrdU labeling of DNA replication in synchronized HaCaT cells; assay type: cell-based, human; conditions: treated at 18 hrs, analyzed 3 hrs later; CA1/novobiocin 15 μM, etoposide 5 μM
Method: Verification of synchronization and determination of drug effects was performed by measuring the incorporation of bromo-deoxyuridine (BrdU) into replicating foci within nuclei. At times indicated, cells were pulse-labeled with 15 μM BrdU for 30 min, fixed with 4% paraformaldehyde, and analyzed by standard immunofluorescent techniques(40,51) with an anti-BrdU monoclonal antibody (Roche, clone no. BMC9318, RRID:AB_2313622). The average counts of three fields of 100 or more cells were used to determine the percentages of BrdU-labeled nuclei, +/−1 s.d.

[3] = test system: MCM/CMG and replisome proteins in HaCaT cells; experiment: Immunoblots of chromatin-bound or total proteins, synchronized HaCaT cells; assay type: cell-based, human; conditions: S-phase cells; etoposide 5 μM
[4] = test system: T1, human CMG helicase (hCMG); experiment: hCMG ATPase activity, FP ADP^2 Transcreener assay; assay type: biochemical; conditions: role: product, 15 fmol hCMG, 500 μM ATP
Method: The fluorescent-polarization (FP) ADP-sensing assays were performed using the Transcreener® ADP^2 FP assay kit (cat #3010-1K, Bellbrook Labs). For hCMG inhibitor screening, assays were performed at 37° C. for 1 hr in 10 μl reactions in a 384-well plate (cat. #4514, Corning) using 2 μL of hCMG (~15 fmol), 25 mM Hepes-NaOH (pH 7.5), 10 mM NaCl, 0.5 mM ATP, 10 mM magnesium acetate, 1 mM DTT, 0.1 mg/ml BSA, and DNA fork substrates. […] Selected inhibitors or samples from a chemical library were added into the reactions when conducting the screening or testing inhibitor effectiveness. The NCI Diversity Set VI chemical library was obtained from the National Cancer Institute (Bethesda, MD).
The window of sensitivity for the ADP-sensing assays is determined by setting up two 10 μL control samples without any added hCMG helicase: a Low-FP mixture (4 nM ADP Alexa Fluor-633 Tracer alone) and a High-FP mixture (4 nM ADP Alexa Fluor-633 Tracer plus patented anti-ADP^2 Antibody). The amount of ADP^2 Antibody used had to be adjusted to account for the use of 500 μM ATP in our hCMG assays, versus 10 μM ATP in enzyme reactions typically assessed with standard kits prepared by BellBrook Labs. […] This was done according to the manufacturer by performing a titration with increasing ADP^2 Antibody, fixed 4 nM ADP Alexa Fluor-633 Tracer, and 500 μM ATP to determine the ~EC80-85 for millipol (mP) changes, which determined the optimal ADP^2 Antibody concentration to use as 0.64 mg/ml (FIG. 9A). Samples are read with a Perkin Elmer Envision II plate reader with optimized Cy5 (far-red) FP-compatible mirror and cubes (cat #2100-8390, Perkin Elmer). The Low-FP sample is the least polarized and gives a low mP reading, while the High-FP sample is the most polarized and gives the highest mP reading. The difference between the Low-FP and High-FP values defines the FP assay window, which is normally in a range of 150-200 mP under ideal conditions for screening purposes. The hCMG helicase hydrolyzes ATP to ADP and decreases the mP reading within this window, with an ideal change (ΔmP) in the FP window of at least 50% to be in a readable range for inhibitor screening (as per manufacturer). Potential hCMG chemical inhibitors reverse this effect and cause the mP readings to increase.
We performed a titration with increasing and decreasing concentrations of ADP and ATP, respectively, to assess the sensitivity of the FP assay in detecting ADP production (FIG. 9B). Consistent with the stated manufacturer predictions, the assay can reliably detect 1-3% changes in ADP production (i.e., 5-15 μM ADP production) in starting concentrations of ATP of 500 μM, with a Z′ efficiency between 0.6-0.8 (determined following manufacturer protocols).
Once the hCMG enzyme reactions are complete, 10 μL of 1× Stop Solution and Detection Buffer (buffer from BellBrook Labs; containing 4 nM ADP Alexa Fluor-633 Tracer plus ADP^2 Antibody) are added to each reaction, and to the High-FP control. The Low-FP control receives 10 μL of 1× Stop Solution and Detection Buffer containing only 4 nM ADP Alexa Fluor-633 Tracer (no Antibody). Samples are incubated at 25° C. for 1 hr, then read in the plate reader. […] Plate readings from these tests of potential positive hits should be similar to that seen with the Low-FP control, or such hits may instead be false-positives.

T1 sequence (P49736 whole entry): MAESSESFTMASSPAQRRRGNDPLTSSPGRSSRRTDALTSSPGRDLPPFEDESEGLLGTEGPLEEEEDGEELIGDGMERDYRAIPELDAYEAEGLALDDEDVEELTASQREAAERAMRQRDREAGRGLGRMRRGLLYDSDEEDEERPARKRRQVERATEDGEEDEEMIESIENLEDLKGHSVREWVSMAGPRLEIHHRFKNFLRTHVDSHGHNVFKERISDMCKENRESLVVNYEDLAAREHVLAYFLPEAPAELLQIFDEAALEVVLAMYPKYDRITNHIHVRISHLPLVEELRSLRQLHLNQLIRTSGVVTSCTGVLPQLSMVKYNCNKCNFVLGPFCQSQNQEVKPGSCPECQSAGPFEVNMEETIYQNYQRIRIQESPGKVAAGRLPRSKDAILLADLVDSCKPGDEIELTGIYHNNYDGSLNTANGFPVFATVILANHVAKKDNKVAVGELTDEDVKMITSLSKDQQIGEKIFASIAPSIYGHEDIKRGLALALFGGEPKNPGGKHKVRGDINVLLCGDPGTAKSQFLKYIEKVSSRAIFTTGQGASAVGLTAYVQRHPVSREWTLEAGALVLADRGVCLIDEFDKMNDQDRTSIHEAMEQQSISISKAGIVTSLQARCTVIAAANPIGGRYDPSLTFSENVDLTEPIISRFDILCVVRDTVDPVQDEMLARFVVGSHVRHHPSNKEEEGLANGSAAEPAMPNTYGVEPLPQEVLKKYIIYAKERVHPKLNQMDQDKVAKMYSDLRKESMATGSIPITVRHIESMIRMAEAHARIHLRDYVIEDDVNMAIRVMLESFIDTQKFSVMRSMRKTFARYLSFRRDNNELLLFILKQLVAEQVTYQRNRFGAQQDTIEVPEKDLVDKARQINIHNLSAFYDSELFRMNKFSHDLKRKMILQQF
T1 sequence (P25205 whole entry, further chain): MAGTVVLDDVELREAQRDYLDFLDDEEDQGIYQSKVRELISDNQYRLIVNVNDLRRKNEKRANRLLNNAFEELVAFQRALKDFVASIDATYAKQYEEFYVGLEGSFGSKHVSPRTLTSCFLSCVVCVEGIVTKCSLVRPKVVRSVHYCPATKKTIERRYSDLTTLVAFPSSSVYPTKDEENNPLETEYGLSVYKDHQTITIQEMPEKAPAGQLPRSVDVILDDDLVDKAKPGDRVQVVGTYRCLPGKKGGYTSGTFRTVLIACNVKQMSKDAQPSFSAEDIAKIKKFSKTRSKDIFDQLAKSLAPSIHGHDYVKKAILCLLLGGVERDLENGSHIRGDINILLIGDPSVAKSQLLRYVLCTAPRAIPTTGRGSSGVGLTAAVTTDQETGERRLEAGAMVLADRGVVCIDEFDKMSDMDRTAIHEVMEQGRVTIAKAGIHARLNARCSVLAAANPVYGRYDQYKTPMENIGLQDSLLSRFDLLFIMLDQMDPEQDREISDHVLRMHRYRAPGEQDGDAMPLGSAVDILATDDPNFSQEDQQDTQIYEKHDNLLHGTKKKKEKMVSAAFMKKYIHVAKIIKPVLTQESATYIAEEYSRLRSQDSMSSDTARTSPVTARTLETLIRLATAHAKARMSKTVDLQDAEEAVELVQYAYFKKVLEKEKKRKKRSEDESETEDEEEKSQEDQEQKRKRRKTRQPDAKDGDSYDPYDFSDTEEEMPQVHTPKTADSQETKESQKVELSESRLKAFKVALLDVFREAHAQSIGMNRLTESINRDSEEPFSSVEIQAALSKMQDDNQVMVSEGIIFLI
T1 sequence (P33991 whole entry, further chain): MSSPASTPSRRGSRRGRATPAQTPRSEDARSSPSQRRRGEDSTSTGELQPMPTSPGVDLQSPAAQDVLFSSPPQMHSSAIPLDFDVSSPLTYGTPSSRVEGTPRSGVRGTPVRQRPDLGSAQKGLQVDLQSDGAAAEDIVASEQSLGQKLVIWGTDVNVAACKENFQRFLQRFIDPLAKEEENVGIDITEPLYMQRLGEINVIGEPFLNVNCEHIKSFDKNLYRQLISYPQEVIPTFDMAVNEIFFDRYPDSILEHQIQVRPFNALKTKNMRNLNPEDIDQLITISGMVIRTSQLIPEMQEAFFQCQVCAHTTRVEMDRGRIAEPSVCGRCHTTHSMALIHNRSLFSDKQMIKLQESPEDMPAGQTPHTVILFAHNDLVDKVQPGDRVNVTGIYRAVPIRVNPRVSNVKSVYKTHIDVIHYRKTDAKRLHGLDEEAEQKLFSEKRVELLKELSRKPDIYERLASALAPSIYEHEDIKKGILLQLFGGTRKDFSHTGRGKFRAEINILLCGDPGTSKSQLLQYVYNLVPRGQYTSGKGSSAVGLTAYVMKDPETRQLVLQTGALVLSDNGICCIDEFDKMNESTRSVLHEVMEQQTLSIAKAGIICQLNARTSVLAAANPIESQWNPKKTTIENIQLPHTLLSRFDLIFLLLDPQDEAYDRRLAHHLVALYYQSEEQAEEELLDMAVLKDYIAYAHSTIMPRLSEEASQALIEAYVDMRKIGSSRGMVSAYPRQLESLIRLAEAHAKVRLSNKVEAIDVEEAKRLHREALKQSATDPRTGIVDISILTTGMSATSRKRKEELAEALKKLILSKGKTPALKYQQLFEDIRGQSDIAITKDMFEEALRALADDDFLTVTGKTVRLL
T1 sequence (P33992 whole entry, further chain): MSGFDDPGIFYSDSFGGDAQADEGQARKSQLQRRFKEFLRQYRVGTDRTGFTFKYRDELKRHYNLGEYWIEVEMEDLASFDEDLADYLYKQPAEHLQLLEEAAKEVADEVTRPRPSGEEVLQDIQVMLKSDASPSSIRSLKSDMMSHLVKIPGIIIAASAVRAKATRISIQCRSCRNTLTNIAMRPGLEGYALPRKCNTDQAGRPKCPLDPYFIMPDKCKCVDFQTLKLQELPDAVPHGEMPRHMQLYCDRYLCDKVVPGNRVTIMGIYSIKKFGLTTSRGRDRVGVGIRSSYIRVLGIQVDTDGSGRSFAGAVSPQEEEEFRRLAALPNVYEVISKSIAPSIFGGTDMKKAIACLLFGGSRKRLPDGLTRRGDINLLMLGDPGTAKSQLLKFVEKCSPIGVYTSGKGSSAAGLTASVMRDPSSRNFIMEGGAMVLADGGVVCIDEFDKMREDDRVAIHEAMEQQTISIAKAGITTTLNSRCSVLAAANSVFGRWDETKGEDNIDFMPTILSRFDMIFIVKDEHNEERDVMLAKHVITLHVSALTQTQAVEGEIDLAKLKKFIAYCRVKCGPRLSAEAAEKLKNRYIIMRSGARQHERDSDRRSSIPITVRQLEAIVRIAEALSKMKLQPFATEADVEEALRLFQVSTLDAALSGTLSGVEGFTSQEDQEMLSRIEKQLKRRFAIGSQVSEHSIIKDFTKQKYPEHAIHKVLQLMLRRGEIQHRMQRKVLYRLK
T1 sequence (Q14566 whole entry, further chain): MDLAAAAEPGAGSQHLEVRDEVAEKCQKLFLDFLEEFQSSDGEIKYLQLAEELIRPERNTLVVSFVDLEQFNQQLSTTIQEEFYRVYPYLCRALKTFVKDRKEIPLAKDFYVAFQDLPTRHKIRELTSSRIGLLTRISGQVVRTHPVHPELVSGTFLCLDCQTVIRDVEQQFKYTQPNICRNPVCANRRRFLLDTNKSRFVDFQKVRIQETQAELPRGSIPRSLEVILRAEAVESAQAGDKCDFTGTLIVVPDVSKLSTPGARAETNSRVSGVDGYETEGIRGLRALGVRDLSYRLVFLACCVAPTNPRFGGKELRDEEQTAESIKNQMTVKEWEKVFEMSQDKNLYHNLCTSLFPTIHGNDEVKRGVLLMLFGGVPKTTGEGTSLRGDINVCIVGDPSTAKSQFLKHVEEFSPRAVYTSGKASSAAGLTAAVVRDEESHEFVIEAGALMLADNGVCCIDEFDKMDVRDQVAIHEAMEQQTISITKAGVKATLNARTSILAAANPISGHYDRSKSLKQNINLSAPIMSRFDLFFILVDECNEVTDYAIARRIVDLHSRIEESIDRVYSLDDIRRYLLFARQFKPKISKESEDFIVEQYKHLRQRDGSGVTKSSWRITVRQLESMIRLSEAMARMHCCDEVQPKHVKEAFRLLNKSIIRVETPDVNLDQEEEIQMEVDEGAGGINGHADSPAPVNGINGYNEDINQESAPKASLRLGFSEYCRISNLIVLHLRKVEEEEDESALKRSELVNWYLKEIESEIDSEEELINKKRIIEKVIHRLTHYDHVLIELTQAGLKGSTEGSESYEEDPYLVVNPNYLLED
T1 sequence (P33993 whole entry, further chain): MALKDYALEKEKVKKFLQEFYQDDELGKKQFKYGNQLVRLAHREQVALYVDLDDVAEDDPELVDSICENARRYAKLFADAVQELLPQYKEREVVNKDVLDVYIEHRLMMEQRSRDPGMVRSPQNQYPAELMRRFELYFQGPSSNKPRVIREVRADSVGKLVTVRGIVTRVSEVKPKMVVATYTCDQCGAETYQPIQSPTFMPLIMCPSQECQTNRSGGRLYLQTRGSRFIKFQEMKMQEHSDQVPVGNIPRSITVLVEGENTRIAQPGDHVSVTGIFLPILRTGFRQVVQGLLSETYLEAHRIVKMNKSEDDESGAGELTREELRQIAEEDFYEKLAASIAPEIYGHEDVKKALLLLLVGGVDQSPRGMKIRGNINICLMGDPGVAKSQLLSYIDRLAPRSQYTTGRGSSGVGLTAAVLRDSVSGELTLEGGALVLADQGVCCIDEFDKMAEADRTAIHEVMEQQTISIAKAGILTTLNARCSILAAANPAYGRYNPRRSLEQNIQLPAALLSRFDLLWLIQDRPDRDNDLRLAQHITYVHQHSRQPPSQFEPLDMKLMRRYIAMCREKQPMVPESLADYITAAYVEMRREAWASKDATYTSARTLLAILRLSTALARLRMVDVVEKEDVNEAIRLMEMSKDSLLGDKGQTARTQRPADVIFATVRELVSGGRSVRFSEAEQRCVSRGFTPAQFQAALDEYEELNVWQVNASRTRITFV

COc1cc([C@@H]2c3cc4c(cc3[C@@H](O[C@@H]3O[C@@H]5CO[C@@H](C)O[C@H]5[C@H](O)[C@H]3O)[C@H]3COC(=O)[C@H]23)OCO4)cc(OC)c1O [etoposide]
hCMG helicase inhibition by etoposide ([1]; fork-unwinding): does not inhibit hCMG activity | hCMG helicase inhibition by etoposide ([1]; fork-unwinding, listed as Etoposide): no effect on hCMG helicase activity in vitro | DNA replication (BrdU), early S-phase treatment [2]: effectively suppressed DNA replication | DNA polymerases-a and -d on chromatin [3]: small change | replisome components or RPA on chromatin [3]: does not significantly diminish replisome components or RPA on chromatin

CO[C@@H]1[C@@H](OC(=O)c2ccc(C)[nH]2)[C@@H](O)[C@H](Oc2ccc3c(O)c(NC(=O)c4ccc(O)c(CC=C(C)C)c4)c(=O)oc3c2C)OC1(C)C [MBC, (3R,4S,5R,6R)-5-Hydroxy-6-((4-hydroxy-3-(4-hydroxy-3-(3-methylbut-2-en-1-yl)benzamido)-8-methyl-2-oxo-2H-chromen-7-yl)oxy)-3-methoxy-2,2-dimethyltetrahydro-2H-pyran-4-yl]
IC50 ([1]; fork-unwinding, read-out: IC50 for hCMG helicase inhibition): ~59 µM

(3R,4S,5R,6R)-5-Hydroxy-6-((4-hydroxy-3-(4-hydroxy-3-(3-methylbut-2-en-1-yl)benzamido)-8-methyl-2-oxo-2H-chromen-7-yl)oxy)-3-methoxy-2,2-dimethyltetrahydro-2H-pyran-4-yl [MBC]
inhibition of hCMG helicase activity, SAR set [1]: potently inhibit the hCMG

Nc1ncnc2c1ncn2[C@@H]1O[C@H](COP(=O)(O)OP(=O)(O)OP(O)(O)=S)[C@@H](O)[C@H]1O [ATP-γ-S]
suppression of fork-unwinding activity ([1]; 500 μM ATP, increasing ATP-gamma-S): dose-dependent suppression of fork-unwinding activity

CO[C@@H]1[C@@H](OC(=O)c2ccc(C)[nH]2)[C@@H](O)C(O)OC1(C)C (mixture of isomers) [MBC-D1, (3R,4S,5R)-5,6-Dihydroxy-3-methoxy-2,2-dimethyltetrahydro-2H-pyran-4-y 5-methyl-1H-pyrrole-2-carboxylate]
inhibition of hCMG helicase activity, SAR set [1]: only a small level of inhibition

CO[C@@H]1[C@@H](O)[C@@H](O)[C@H](Oc2ccc3c(O)c(NC(=O)c4ccc(O)c(CC=C(C)C)c4)c(=O)oc3c2C)OC1(C)C [MBC-D3, N-(7-(((2R,3R,4S,5R)-3,4-Dihydroxy-5-methoxy-6,6-dimethyltetrahydro-2H-pyran-2-yl)oxy)-4-hydroxy-8-methyl-2-oxo-2H-chromen-3-yl)-4-hydroxy-3-(3-methylbut-2-en-1-yl)benzamide]
inhibition of hCMG helicase activity, SAR set [1]: this inhibition of the hCMG is diminished when the noviose sugar is added

O=C(O)c1cn(C2CC2)c2cc(N3CCNCC3)c(F)cc2c1=O [ciprofloxacin]
hCMG helicase inhibition by quinolones ([1]; 100 μM or 1000 μM): do not inhibit the purified hCMG helicase

CC(C)=CCc1cc(C(=O)Nc2c(O)c3ccc(O)c(C)c3oc2=O)ccc1O [MBC-D2, N-(4,7-Dihydroxy-8-methyl2-oxo-2H-chromen-3-yl)-4-hydroxy-3-(3-methylbut-2-en-1-yl)benzamide]
inhibition of hCMG helicase activity, SAR set [1]: somewhat effective at inhibiting the hCMG

Nc1ncnc2c1ncn2[C@@H]1O[C@H](COP(=O)(O)OP(=O)(O)O)[C@@H](O)[C@H]1O [ADP]
ADP conversion rate by the hCMG [4]: ~ 1.5% | production of ADP ([4]; 10 μL reaction, 1 hr): 7 to 8 µM
